In PubChem BioAssay (NCI):
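Five concentrations, 48 hours, 96-well plates. Definition used: TGI = concentration required for complete inhibition of growth.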

Columns and labels:
Assay in all cases: DTP human tumour cell line panel, 48 h
UACC-62 melanoma = tested on: UACC-62 melanoma
RXF 393 renal = tested on: RXF 393 renal
UO-31 renal = tested on: UO-31 renal
SW-620 colon = tested on: SW-620 colon
IGROV1 ovarian = tested on: IGROV1 ovarian
CAKI-1 renal = tested on: CAKI-1 renal
NCI-H522 lung = tested on: NCI-H522 lung
NCI-H226 lung = tested on: NCI-H226 lung
NCI/ADR-RES ovarian = tested on: NCI/ADR-RES ovarian
SF-268 CNS = tested on: SF-268 CNS
LOX IMVI melanoma = tested on: LOX IMVI melanoma
SNB-19 CNS = tested on: SNB-19 CNS
MCF7 breast = tested on: MCF7 breast
786-0 renal = tested on: 786-0 renal

Row | Compound | TGI (UACC-62 melanoma) [µM] | TGI (RXF 393 renal) [µM] | TGI (UO-31 renal) [µM] | TGI (SW-620 colon) [µM] | TGI (IGROV1 ovarian) [µM] | TGI (CAKI-1 renal) [µM] | TGI (NCI-H522 lung) [µM] | TGI (NCI-H226 lung) [µM] | TGI (NCI/ADR-RES ovarian) [µM] | TGI (SF-268 CNS) [µM] | TGI (LOX IMVI melanoma) [µM] | TGI (SNB-19 CNS) [µM] | TGI (MCF7 breast) [µM] | TGI (786-0 renal) [µM]
1 | Cc1ccc2[nH]c3c(C)c4ccncc4c(C)c3c2c1 | 3.26 | 0.513 | 3.03 | 1.7 | 2.44 | 1.85 | 2.28 | 7.59 | 2.24 | 2.11 | 4.77 | 2.62 | 2.32 | 
2 | CNC(=O)CN1CC(=O)N(C)C(=O)C1 | > 100 | > 100 | > 100 | > 100 | > 100 | > 100 | > 100 | > 100 |  |  | > 100 | > 100 |  | 
3 | O=C(/C=C/c1ccc(Cl)c(Cl)c1)Oc1ccc(/C=C2\CCCCC2=O)cc1 | > 100 |  | > 100 | > 100 | > 100 | > 100 | > 100 |  | > 100 | > 100 | > 100 | > 100 | > 100 | > 100
4 | Cc1cc(=Nc2ccc3c(c2)c(N)cc(C)[n+]3C)nc(N)n1C | > 100 | > 100 | > 100 | > 100 | > 100 | > 100 | > 100 |  | > 100 | > 100 | > 100 | > 100 | > 100 | > 100
5 | c1ccc(-c2cc(-c3cc(-c4ccccc4)n(-c4ccccc4)n3)nn2-c2ccccc2)cc1 | > 100 | > 100 | > 100 |  | > 100 | > 100 | > 100 | > 100 | > 100 | > 100 |  | > 100 | > 100 | > 100
6 | N#Cc1c(-c2ccc(Cl)cc2)c(C#N)c(=O)n(NS(=O)(=O)c2ccccc2)c1-c1ccccc1 | > 25 | > 25 |  | > 25 |  | > 25 |  |  |  |  | > 25 | > 25 | > 25 | > 25
7 | C[C@@H]1CCC2[C@@H](C)C(=O)O[C@@H]3C4C[C@@H]1[C@@]23OO[C@@]4(C)O (stereo partly drawn) | > 100 | > 100 | 94 | > 100 | > 100 | > 100 | > 100 |  | > 100 | > 100 | 62.7 | > 100 | > 100 | > 100
8 | CCCCCCCCCN1CCC(=O)C(C(=O)OC)C1 (stereo not drawn) | 24.9 | 32.7 | 22 | 27.9 |  | 29.2 | 22 | 27.5 | 26.8 | 30.2 | 26.1 |  | 24.9 | 30.6
9 | CSCCC(NC(c1ccccc1)c1ccccc1)[P+](=O)O (stereo not drawn) | > 100 |  | > 100 | > 100 | > 100 | > 100 | > 100 | > 100 | > 100 | > 100 | > 100 | > 100 | > 100 | > 100
10 | Nc1ccn(C2OC(COP(=O)(O)Oc3ccccc3)C(O)C2O)c(=O)n1 (stereo not drawn) | > 100 | > 100 | > 100 | > 100 | > 100 | > 100 | > 100 | > 100 | > 100 | > 100 | > 100 | > 100 | > 100 | 
11 | COc1cc2c(cc1OC)CCN=C2 | > 100 | > 100 | > 100 | > 100 | > 100 | > 100 |  | > 100 | > 100 |  | > 100 | > 100 | > 100 | 
12 | COc1cc2c(cc1OC)C(Cl)C(c1cc(OC)c(OC)c(OC)c1)=C2Cl (stereo not drawn) | 28.9 |  | 27.1 | 46.1 | 54.7 | 32.5 | 23 | 41.4 |  | 55.7 | 30.2 | 37.2 |  | 
13 | COc1cc2c(c(OC)c1OC)C(=O)CC2N (stereo not drawn) | > 100 |  | > 100 | > 100 | > 100 | > 100 | > 100 | > 100 | > 100 | > 100 | > 100 | > 100 | > 100 | > 100
14 | COC(=O)CCCCC/C(=C\C(=O)C(Cl)(Cl)Cl)OC | > 100 | 41.1 | > 100 | 84.3 | 32.2 | > 100 | 41.1 |  | > 100 | 86.3 | 44.9 | > 100 | 58.5 | 68.5
15 | CN1OC(=O)N(C)C1c1ccccc1 (stereo not drawn) | > 100 | > 100 | > 100 | > 100 | > 100 |  | > 100 | > 100 | > 100 | > 100 | > 100 | > 100 | > 100 | 
16 | CC(C)(C)C=C=C(C(C)(C)C)P(=O)(O)O | > 100 | > 100 |  | > 100 | > 100 | > 100 | > 100 | > 100 | > 100 | > 100 | > 100 | > 100 |  | > 100
17 | Cc1ccc(S(=O)(=O)N/N=C2\C=C[C@]3(CC2)C(=O)N(C)c2ccccc23)cc1 | > 100 | > 100 | > 100 | > 100 | > 100 | > 100 |  | > 100 | > 100 | > 100 | > 100 | > 100 | > 100 | > 100
18 | CC1(C)CC(=O)c2c(nc3ccc4ccccc4c3c2-c2ccc(NC(=O)CCCCC(=O)Nc3ccc(-c4c5c(nc6ccc7ccccc7c46)CC(C)(C)CC5=O)cc3)cc2)C1 | > 100 |  | > 100 | > 100 | > 100 | > 100 |  | > 100 | > 100 | > 100 | > 100 | > 100 | > 100 | > 100

Row | Compound | TGI (UACC-62 melanoma) [µM] | TGI (RXF 393 renal) [µM] | TGI (UO-31 renal) [µM] | TGI (SW-620 colon) [µM] | TGI (IGROV1 ovarian) [µM] | TGI (CAKI-1 renal) [µM] | TGI (NCI-H522 lung) [µM] | TGI (NCI-H226 lung) [µM] | TGI (NCI/ADR-RES ovarian) [µM] | TGI (SF-268 CNS) [µM] | TGI (LOX IMVI melanoma) [µM] | TGI (SNB-19 CNS) [µM] | TGI (MCF7 breast) [µM] | TGI (786-0 renal) [µM]
19 | CCN(CC)CCNc1ccc(C)c2sc3ccc(O)cc3c(=O)c12 | 2.21 | 5.82 | 3.82 | 2.38 | 5.19 | 21.8 | 2.7 | 2 |  | 7.93 | 2.18 | 15.6 |  | 2.01
20 | C[C@@H]1OC(=O)C[C@H]2CC(=O)N(CCc3cn(S(=O)(=O)C(F)(F)F)c4ccccc34)C[C@@H]21 | > 100 | > 100 | > 100 | > 100 | > 100 | > 100 | > 100 |  | > 100 | > 100 |  | > 100 | > 100 | > 100
21 | CC(C)(C)/C(O)=C\c1nc2cc(C(F)(F)F)ccc2[nH]c1=O | > 100 | > 100 | > 100 | > 100 | > 100 | > 100 | > 100 | > 100 | > 100 | > 100 | > 100 | > 100 |  | > 100
22 | COc1cc(CC2c3cc(OC)c(OC)cc3CCN2C)c(Oc2cc3c(cc2OC)-c2c(OC)c(OC)c(OC)c4c2C(C3)N(C)CC4)cc1OC (stereo not drawn) | 29.1 | 14.9 | 22.1 | 30.7 | 29.9 | 32.1 | 24.5 | 32.7 |  | 32.8 | 22.6 | 43.3 |  | 21.5
23 | CC(=O)c1cn(-c2ccc(Cl)cc2)c(=O)c2c(N)n[nH]c12 | > 100 | > 100 | > 100 | > 100 | > 100 | > 100 |  | > 100 | > 100 | > 100 | > 100 | > 100 |  | > 100
24 | CC1OC(=O)c2ccccc2NC1=O (stereo not drawn) | > 100 | > 100 | > 100 | > 100 | > 100 | > 100 | > 100 | > 100 | > 100 | > 100 | > 100 | > 100 |  | > 100
25 | CN1CCN(c2ccc3[nH]c(C4=C(O)c5nc(CO)n(C)c5C(=O)C4=O)nc3n2)CC1 | > 100 | 91.4 | > 100 | > 100 | > 100 | > 100 | > 100 | > 100 | > 100 | > 100 | > 100 | > 100 |  | > 100
26 | C=C1C(=O)OC2/C=C(\C)C(O)/C=C\C(C)(O)CC(OC(=O)/C(C)=C/C)C12 (stereo not drawn) | 32.6 | 42.6 | > 100 | 34.4 | > 100 | > 66.7 | 26.2 | > 100 |  | > 100 | 36.6 | 98.8 |  | 38
27 | COc1ccc(C)cc1NC(=S)N/N=C/c1ccc(SC)cc1 | > 100 | > 100 | > 100 | > 100 | > 100 | > 100 | > 100 |  | > 100 | > 100 | > 100 | > 100 | > 100 | > 100
28 | Cc1nc(-c2nc([N+](=O)[O-])c([N+](=O)[O-])[nH]2)cs1 | > 100 | > 100 | > 100 | > 100 | > 100 | > 100 | > 100 | > 100 |  | > 100 | > 100 | > 100 |  | 
29 | CSC(=NCCN=C(NS(=O)(=O)c1ccc(Cl)cc1)SC)NS(=O)(=O)c1ccc(Cl)cc1 | > 100 |  | > 100 | > 100 | > 100 | > 100 |  |  | > 100 | 68.7 | > 100 | > 100 | > 100 | > 100
30 | O=C(O)c1ccccc1/C=N\NC1=NCCN1 | > 100 |  | > 100 | > 100 | > 100 | > 100 | > 100 | > 100 | > 100 | > 100 | > 100 | > 100 | > 100 | > 100
31 | COc1ccc2c(c1)c1cc(OC)ccc1n2CCCCOc1ccc(-c2c3ccccc3c(-c3ccc(OCCCCn4c5ccc(OC)cc5c5cc(OC)ccc54)cc3)c3ccccc23)cc1 | > 100 |  | > 100 | > 100 | > 100 | > 100 | > 100 | > 100 |  | > 100 | > 100 | > 100 |  | 
32 | CC(C)[Si]1(C(C)C)OCC2OC(n3ccc(=O)[nH]c3=O)C(O)(CO)C2O[Si](C(C)C)(C(C)C)O1 (stereo not drawn) | 29.2 | 30.4 | 22.2 | 33.8 | 23.9 | 29.6 |  | 36.8 | 30.1 | 27.8 | 30.7 | 28.9 | 29.2 | 29.3
33 | CCCc1c2c3ccccc3nc-2nc2ccccn12 | > 100 |  | > 100 | > 100 | > 100 | > 100 | > 100 |  | > 100 | 70.4 | > 100 | > 100 |  | > 100
34 | COC/C=C\[C@@]1(O)CCCC[C@@H]1CC(OC)OC |  | > 92.1 | > 96.6 | > 100 | > 55.6 | > 100 | 38.4 | > 100 | > 100 | > 91.9 | 20.9 | > 100 |  | > 100
35 | COc1nc(=O)n(C2CC(N=[N+]=[N-])C(CO)O2)cc1C (stereo not drawn) | > 100 |  | > 100 | > 100 | > 100 |  | > 100 | > 100 | > 100 | > 100 | > 100 | > 100 | > 100 | > 100
36 | CCOC(=O)c1c(SCCO)n(-c2ccccc2)c(=S)n(-c2ccccc2)c1=O | > 100 |  | > 100 | > 100 | > 100 | > 100 | > 100 | > 100 | > 100 | > 100 | > 100 | > 100 | > 100 | > 100
